Test [1] deals with T1, IRAK4 (Homo sapiens, UniProt Q9NWZ3).
T1 construct: His-TEV-IRAK4 (1-460); His (N); TEV cleavage site (N)
T1 sequence (Q9NWZ3 1-460): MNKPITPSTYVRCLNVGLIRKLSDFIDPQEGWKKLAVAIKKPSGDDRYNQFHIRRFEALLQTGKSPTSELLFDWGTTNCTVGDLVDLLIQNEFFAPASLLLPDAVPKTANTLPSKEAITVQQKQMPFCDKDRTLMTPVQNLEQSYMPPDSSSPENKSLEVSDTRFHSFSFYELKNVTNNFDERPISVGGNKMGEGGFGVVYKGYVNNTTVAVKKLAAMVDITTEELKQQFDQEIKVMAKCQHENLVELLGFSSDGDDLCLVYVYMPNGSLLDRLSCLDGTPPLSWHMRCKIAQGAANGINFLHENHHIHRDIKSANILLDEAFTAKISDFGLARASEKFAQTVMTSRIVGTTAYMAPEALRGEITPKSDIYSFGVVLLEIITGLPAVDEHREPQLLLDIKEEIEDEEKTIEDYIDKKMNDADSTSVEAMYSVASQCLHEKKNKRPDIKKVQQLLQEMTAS
In words: IRAK4 enzymatic assay (ADP-Glo luminescence). Format: biochemical. As to conditions: purified human recombinant His-TEV-IRAK4 (1-460), ATP 2 μM. The method, boiled down: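 Recombinant His-TEV-IRAK4 (1-460) at 0.3 μg/ml preincubated 15 min at RT with compounds (10 μM to 0.5 nM) in Hepes pH 7.0 buffer with MgCl2/MnCl2. Reaction started with 2 μM ATP and 300 nM STK1-biotin peptide, run 2 h at RT. ADP formed read by ADP-Glo luminescence.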
On the technique in general: In ADP-Glo the light output rises with the ADP produced.

The target of test [2] is T2, IRAK1 (Homo sapiens, UniProt P51617).
T2 construct: His-TEV-IRAK1 (194-712); His (N); TEV cleavage site (N)
In words: IRAK1 enzymatic assay (ADP-Glo luminescence). It counts as biochemical. The following applies: purified human recombinant His-TEV-IRAK1 (194-712). The method, boiled down: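 Recombinant human His-TEV-IRAK1 (194-712), 0.3 μg/ml, preincubated 15 min at RT with compounds (10 μM to 0.5 nM) in 50 mM Hepes pH 7.0, 10 mM MgCl2, 2 mM DTT, 0.1% BSA. ATP-started reaction run 2 hours at RT; ADP formed from ATP hydrolysis/autophosphorylation read by ADP-Glo luminescence.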

T2 sequence (P51617 194-712): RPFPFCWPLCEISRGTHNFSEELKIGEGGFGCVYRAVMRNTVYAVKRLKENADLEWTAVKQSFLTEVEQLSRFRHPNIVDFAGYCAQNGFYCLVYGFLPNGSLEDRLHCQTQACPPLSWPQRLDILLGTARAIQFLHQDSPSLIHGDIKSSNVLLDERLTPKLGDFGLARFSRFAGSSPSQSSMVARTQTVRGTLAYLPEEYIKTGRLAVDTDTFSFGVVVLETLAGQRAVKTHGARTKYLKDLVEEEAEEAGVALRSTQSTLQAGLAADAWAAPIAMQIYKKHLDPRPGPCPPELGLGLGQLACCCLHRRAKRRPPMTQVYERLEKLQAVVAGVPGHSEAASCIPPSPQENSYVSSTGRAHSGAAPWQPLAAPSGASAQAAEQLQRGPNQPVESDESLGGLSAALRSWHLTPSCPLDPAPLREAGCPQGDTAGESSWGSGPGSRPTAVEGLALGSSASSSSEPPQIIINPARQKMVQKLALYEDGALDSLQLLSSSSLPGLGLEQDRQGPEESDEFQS

In general, IC50 refers to the midpoint of a concentration-inhibition curve. On to `CS(=O)(=O)N1CCC(n2/c(=N/C(=O)c3cccc(C(F)F)c3)[nH]c3cc(N4CCOCC4=O)ccc32)CC1` [Compound 133, (E)-3-(difluoromethyl)-N-(1-(1-(methylsulfonyl)piperidin-4-yl)-5-(3-oxomorpholino)-1H-benzo[d]imidazole-2(3H)-ylidene)benzamide], for which the half-inhibitory concentration (IC50) in test [1] and in test [2] was at most 100 nM throughout.

On to `CCNC(=O)N1CCC(n2/c(=N/C(=O)c3cccc(C(F)(F)F)c3)[nH]c3cc(N4CCOCC4=O)ccc32)CC1` [Compound 134, (E)-N-ethyl-4-(5-(3-oxomorpholino)-2-((3-(trifluoromethyl)benzoyl)imino)-2,3-dihydro-1H-benzo[d]imidazol-1-yl)piperidine-1-carboxamide], for which the IC50 was at most 100 nM in test [1] and 100 to 1000 nM in test [2].

For `CCNC(=O)N1CCC(n2/c(=N/C(=O)c3cccc(C(F)F)c3)[nH]c3cc(N4CCOCC4=O)ccc32)CC1` [Compound 135, (E)-4-(2-((3-(difluoromethyl)benzoyl)imino)-5-(3-oxomorpholino)-2,3-dihydro-1H-benzo[d]imidazol-1-yl)-N-ethylpiperidine-1-carboxamide], the IC50 in test [1] and in test [2] was at most 100 nM in each case.

For `O=C(/N=c1\[nH]c2cc(N3CCOCC3=O)ccc2n1C1CCS(=O)(=O)CC1)c1cccc(C(F)(F)F)c1` [Compound 136, (E)-N-(1-(1,1-dioxidotetrahydro-2H-thiopyran-4-yl)-5-(3-oxomorpholino)-1H-benzo[d]imidazol-2(3H)-ylidene)-3-(trifluoromethyl)benzamide], the half-maximal inhibitory concentration (IC50) in test [1] is at most 100 nM; in test [2] it was 100 to 1000 nM.

For the molecule `CC(C)Oc1cc2c(cc1N1CCOCC1=O)[nH]/c(=N\C(=O)c1cccc(C(F)F)c1)n2CCCO` [Compound 137, (E)-3-(difluoromethyl)-N-(1-(3-hydroxypropyl)-6-isopropoxy-5-(3-oxomorpholino)-1H-benzo[d]imidazol-2(3H)-ylidene)benzamide], the concentration for half-maximal inhibition (IC50) in test [1] and in test [2] was at most 100 nM in each case.

In the case of `N#Cc1cc2c(cc1N1CCOCC1=O)[nH]/c(=N\C(=O)c1cccc(C(F)(F)F)c1)n2CCCO` [Compound 138, (E)-N-(6-cyano-1-(3-hydroxypropyl)-5-(3-oxomorpholino)-1H-benzo[d]imidazol-2(3H)-ylidene)-3-(trifluoromethyl)benzamide], the IC50 in test [1] is at most 100 nM; in test [2], above 1000 nM.

With `O=C(/N=c1\[nH]c2cc(N3CCOCC3=O)c(F)cc2n1CCCO)c1cccc(C(F)(F)F)c1` [Compound 139, (E)-N-(6-fluoro-1-(3-hydroxypropyl)-5-(3-oxomorpholino)-1H-benzo[d]imidazol-2(3H)-ylidene)-3-(trifluoromethyl)benzamide], the IC50 in test [1] is at most 100 nM; in test [2], 100 to 1000 nM.

Take `O=C(/N=c1\[nH]c2cc(N3CCOCC3=O)c(F)cc2n1CCCO)c1cccc(C(F)F)c1` [Compound 140, (E)-3-(difluoromethyl)-N-(6-fluoro-1-(3-hydroxypropyl)-5-(3-oxomorpholino)-1H-benzo[d]imidazol-2(3H)-ylidene)benzamide]: the values for the concentration for half-maximal inhibition (IC50) in test [1] and in test [2] were at most 100 nM and 100 to 1000 nM, respectively.

For the molecule `O=C(/N=c1\[nH]c2cc(N3CCOCC3=O)c(Cl)cc2n1CCCO)c1cccc(C(F)(F)F)c1` [Compound 141, (E)-N-(6-chloro-1-(3-hydroxypropyl)-5-(3-oxomorpholino)-1H-benzo[d]imidazol-2(3H)-ylidene)-3-(trifluoromethyl)benzamide], the half-maximal inhibitory concentration (IC50) in test [1] is at most 100 nM; in test [2] it was above 1000 nM.

Turning to `O=C(/N=c1\[nH]c2cc(N3CCOCC3=O)c(Cl)cc2n1CCCO)c1cccc(C(F)F)c1` [Compound 142, (E)-N-(6-chloro-1-(3-hydroxypropyl)-5-(3-oxomorpholino)-1H-benzo[d]imidazol-2(3H)-ylidene)-3-(difluoromethyl)benzamide], the IC50 in test [1] is at most 100 nM; in test [2], 100 to 1000 nM.

As for `COc1cc2c(cc1N1CCOCC1=O)[nH]/c(=N\C(=O)c1cccc(C(F)(F)F)c1)n2[C@H](C)CCO` [Compound 143, (R,E)-N-(1-(4-hydroxybutan-2-yl)-6-methoxy-5-(3-oxomorpholino)-1H-benzo[d]imidazol-2(3H)-ylidene)-3-(trifluoromethyl)benzamide], the IC50 is at most 100 nM in test [1] and 100 to 1000 nM in test [2].

As to `O=C(/N=c1\[nH]c2cc(N3CCCOC3=O)ccc2n1CC(F)CO)c1cccc(C(F)(F)F)c1` (centres unmarked) [Compound 145, (E)-N-(1-(2-fluoro-3-hydroxypropyl)-5-(2-oxo-1,3-oxazinan-3-yl)-1H-benzo[d]imidazol-2(3H)-ylidene)-3-(trifluoromethyl)benzamide], the half-inhibitory concentration (IC50) in test [1] and in test [2] was at most 100 nM in each case.

In the case of `N#Cc1cccc(C(=O)/C=C2\Nc3cc(N4CCOCC4=O)ccc3N2CCCO)c1` [Compound 146, (E)-3-(2-(1-(3-hydroxypropyl)-5-(3-oxomorpholino)-1H-benzo[d]imidazol-2(3H)-ylidene)acetyl)benzonitrile], the IC50 in test [1] and in test [2] was 100 to 1000 nM throughout.

With `O=C(/C=C1\Nc2cc(N3CCOCC3=O)ccc2N1CCCO)c1cccc(C(F)(F)F)n1` [Compound 147, (E)-4-(1-(3-hydroxypropyl)-2-(2-oxo-2-(6-(trifluoromethyl)pyridin-2-yl)ethylidene)-2,3-dihydro-1H-benzo[d]imidazol-5-yl)morpholin-3-one], the concentration for half-maximal inhibition (IC50) was at most 100 nM in test [1] and 100 to 1000 nM in test [2].

For the molecule `O=C(/C=C1\Nc2cc(N3CCOCC3=O)ccc2N1CCCO)c1cccc(Br)n1` [Compound 148, (E)-4-(2-(2-(6-bromopyridin-2-yl)-2-oxoethylidene)-1-(3-hydroxypropyl)-2,3-dihydro-1H-benzo[d]imidazol-5-yl)morpholin-3-one], the results for the IC50 in test [1] and in test [2] were at most 100 nM and 100 to 1000 nM, respectively.

In the case of `O=C(/C=C1\Nc2cc(N3CCOCC3=O)ccc2N1CCCO)c1ccc2ccccc2n1` [Compound 149, (E)-4-(1-(3-hydroxypropyl)-2-(2-oxo-2-(quinolin-2-yl)ethylidene)-2,3-dihydro-1H-benzo[d]imidazol-5-yl)morpholin-3-one], the half-maximal inhibitory concentration (IC50) in test [1] and in test [2] was above 1000 nM each time.

With `NC(=O)[C@H]1CC[C@@H](n2/c(=N/C(=O)c3cccc(C(F)(F)F)c3)[nH]c3cc(N4CCOCC4=O)ccc32)CC1` [Compound 150, (E)-N-(1-((1s,4s)-4-carbamoylcyclohexyl)-5-(3-oxomorpholino)-1H-benzo[d]imidazol-2(3H)-ylidene)-3-(trifluoromethyl)benzamide], the results for the IC50 in test [1] and in test [2] were at most 100 nM and 100 to 1000 nM, respectively.

In the case of `O=C(/N=c1\[nH]c2cc(N3CCOCC3=O)ccc2n1CCCO)c1cccc(SC(F)(F)F)c1` [Compound 151, (E)-N-(1-(3-hydroxypropyl)-5-(3-oxomorpholino)-1H-benzo[d]imidazol-2(3H)-ylidene)-3-((trifluoromethyl)thio)benzamide], the IC50 in test [1] and in test [2] was at most 100 nM in each case.

Turning to `O=C(/N=c1\[nH]c2cc(N3CCOCC3=O)ccc2n1CCCO)c1cccc(S(=O)(=O)C(F)(F)F)c1` [Compound 152, (E)-N-(1-(3-hydroxypropyl)-5-(3-oxomorpholino)-1H-benzo[d]imidazol-2(3H)-ylidene)-3-((trifluoromethyl)sulfonyl)benzamide], the concentration for half-maximal inhibition (IC50) in test [1] and in test [2] was at most 100 nM in each case.

As to `Cn1ccc(-c2cccc(C(=O)/N=c3\[nH]c4cc(N5CCOCC5=O)ccc4n3CCCO)c2)cc1=O` [Compound 153, (E)-N-(1-(3-hydroxypropyl)-5-(3-oxomorpholino)-1H-benzo[d]imidazol-2(3H)-ylidene)-3-(1-methyl-2-oxo-1,2-dihydropyridin-4-yl)benzamide], the IC50 in test [1] and in test [2] was at most 100 nM each time.

As to `O=C1C[C@H](n2/c(=N/C(=O)c3cccc(C(F)(F)F)c3)[nH]c3cc(N4CCCOC4=O)ccc32)CN1` [Compound 154, (S,E)-N-(5-(2-oxo-1,3-oxazinan-3-yl)-1-(5-oxopyrrolidin-3-yl)-1H-benzo[d]imidazol-2(3H)-ylidene)-3-(trifluoromethyl)benzamide], the figures for the concentration for half-maximal inhibition (IC50) in test [1] and in test [2] were 100 to 1000 nM and above 1000 nM, respectively.

Take `O=C(/N=c1\[nH]c2cc(N3CCCOC3=O)ccc2n1CC1CCOCC1)c1cccc(C(F)(F)F)c1` [Compound 155, (E)-N-(5-(2-oxo-1,3-oxazinan-3-yl)-1-((tetrahydro-2H-pyran-4-yl)methyl)-1H-benzo[d]imidazol-2(3H)-ylidene)-3-(trifluoromethyl)benzamide]: the IC50 in test [1] was at most 100 nM; in test [2], 100 to 1000 nM.

The record behind these values is patent publication US10059701B2 (Merck Patent GmbH, priority 2015, dated 2018).
